Experimental data published in ChEMBL document CHEMBL1201862, “PubChem BioAssay data set” (2004).
Activity calls are given as the source filed them.

Key:
[1] = target: Heat shock cognate 71 kDa protein (Homo sapiens, UniProt P11142); assay: In Vitro Hsc70 Dose Response Fluorescence Polarization Assay. [Related pubchem assays: 1072 ]
[2] = target: T1, Dual specificity protein phosphatase 6 (Rattus norvegicus, UniProt Q64346); format: functional
T1 sequence (Q64346 whole entry): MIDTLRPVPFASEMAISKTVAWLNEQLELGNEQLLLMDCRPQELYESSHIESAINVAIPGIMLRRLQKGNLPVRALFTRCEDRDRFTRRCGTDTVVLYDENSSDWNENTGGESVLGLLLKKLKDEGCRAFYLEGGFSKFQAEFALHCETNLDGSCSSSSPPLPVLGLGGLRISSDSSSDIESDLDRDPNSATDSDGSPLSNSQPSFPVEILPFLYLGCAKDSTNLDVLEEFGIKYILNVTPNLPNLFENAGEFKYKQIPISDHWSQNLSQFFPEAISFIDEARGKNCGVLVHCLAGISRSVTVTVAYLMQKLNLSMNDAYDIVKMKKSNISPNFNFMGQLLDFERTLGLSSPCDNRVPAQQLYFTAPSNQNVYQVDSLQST

[3] = target: T1, Dual specificity protein phosphatase 6
[4] = target: T2, Tyrosine-protein phosphatase non-receptor type 7 (Homo sapiens, UniProt P35236); format: functional
T2 sequence (P35236 whole entry): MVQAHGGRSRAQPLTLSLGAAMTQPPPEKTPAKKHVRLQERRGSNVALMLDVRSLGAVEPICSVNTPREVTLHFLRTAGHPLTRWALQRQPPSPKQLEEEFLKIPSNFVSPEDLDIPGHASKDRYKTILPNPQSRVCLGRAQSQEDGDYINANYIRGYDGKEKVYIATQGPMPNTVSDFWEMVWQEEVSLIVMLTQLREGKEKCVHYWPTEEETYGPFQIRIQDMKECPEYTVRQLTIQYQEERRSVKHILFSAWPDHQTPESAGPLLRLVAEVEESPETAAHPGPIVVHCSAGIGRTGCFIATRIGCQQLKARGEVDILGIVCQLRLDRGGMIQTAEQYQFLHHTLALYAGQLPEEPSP

[5] = target: Glyceraldehyde-3-phosphate dehydrogenase (Homo sapiens, UniProt P04406)
[6] = target: Heat shock 70 kDa protein 1A (Homo sapiens, UniProt P0DMV8); assay: inhibition of Hsp70 binding activity – biochemical, fluorescence polarization, SAR follow-up (AID 1072)
[7] = target: Melanin-concentrating hormone receptor 1 (Homo sapiens, UniProt Q99705); assay: Late-stage fluorescence-based counterscreen for antagonists of the G-protein coupled receptor 7 (GPR7): cell-based dose response assay to identify antagonists of the melanin-concentrating hormone receptor 1 (MCHR1). [Related pubchem assays (depositor defined):AID1861, AID1880, AID1952, AID2148, AID2251, AID2257, AID485339]; format: functional;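 note: stimulated with 30 nM MCH peptide agonist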
ORF 73 = ORF 73 (Human herpesvirus 8, UniProt O40947); assay: KSHV LANA DNA-binding disruption – biochemical, fluorescence polarization, cherry-picked samples, dose response (AID 504725); parameters: species or system Human gammaherpesvirus 8;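 note: fluorescence polarization of a labeled DNA duplex reporting LANA DNA binding; potency is for inhibitors that block LANA binding to the DNA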
Cytochrome P450 2D6 [8] = target: T3, Cytochrome P450 2D6 (Homo sapiens, UniProt P10635);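 note: CYP2D6 member of a cytochrome P450 panel assay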
Cytochrome P450 2D6 [9] = target: T3, Cytochrome P450 2D6; remark: listed apart in the source

T3 sequence (P10635 whole entry): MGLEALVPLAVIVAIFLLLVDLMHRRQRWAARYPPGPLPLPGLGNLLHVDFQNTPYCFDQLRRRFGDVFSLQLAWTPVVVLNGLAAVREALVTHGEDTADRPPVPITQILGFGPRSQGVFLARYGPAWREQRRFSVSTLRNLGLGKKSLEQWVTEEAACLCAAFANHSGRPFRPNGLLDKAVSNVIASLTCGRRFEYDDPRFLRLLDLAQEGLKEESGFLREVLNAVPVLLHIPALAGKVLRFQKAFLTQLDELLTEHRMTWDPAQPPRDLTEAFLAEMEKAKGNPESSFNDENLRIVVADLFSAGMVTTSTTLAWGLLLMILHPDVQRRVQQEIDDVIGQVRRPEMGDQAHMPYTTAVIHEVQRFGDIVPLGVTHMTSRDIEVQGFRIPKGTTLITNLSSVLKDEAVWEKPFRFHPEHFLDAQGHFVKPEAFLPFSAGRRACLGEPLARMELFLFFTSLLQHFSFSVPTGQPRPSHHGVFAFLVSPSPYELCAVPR
Glyceraldehyde-3-phosphate dehydrogenase, sequence (P04406 whole entry): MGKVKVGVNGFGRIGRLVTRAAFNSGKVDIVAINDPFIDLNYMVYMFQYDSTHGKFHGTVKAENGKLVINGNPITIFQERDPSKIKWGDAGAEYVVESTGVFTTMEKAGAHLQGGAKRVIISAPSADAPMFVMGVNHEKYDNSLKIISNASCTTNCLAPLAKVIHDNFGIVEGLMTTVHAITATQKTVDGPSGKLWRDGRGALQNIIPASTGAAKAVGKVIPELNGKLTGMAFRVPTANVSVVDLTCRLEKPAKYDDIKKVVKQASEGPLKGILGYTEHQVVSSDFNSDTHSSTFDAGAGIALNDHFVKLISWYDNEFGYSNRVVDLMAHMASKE
ORF 73, sequence (O40947 whole entry): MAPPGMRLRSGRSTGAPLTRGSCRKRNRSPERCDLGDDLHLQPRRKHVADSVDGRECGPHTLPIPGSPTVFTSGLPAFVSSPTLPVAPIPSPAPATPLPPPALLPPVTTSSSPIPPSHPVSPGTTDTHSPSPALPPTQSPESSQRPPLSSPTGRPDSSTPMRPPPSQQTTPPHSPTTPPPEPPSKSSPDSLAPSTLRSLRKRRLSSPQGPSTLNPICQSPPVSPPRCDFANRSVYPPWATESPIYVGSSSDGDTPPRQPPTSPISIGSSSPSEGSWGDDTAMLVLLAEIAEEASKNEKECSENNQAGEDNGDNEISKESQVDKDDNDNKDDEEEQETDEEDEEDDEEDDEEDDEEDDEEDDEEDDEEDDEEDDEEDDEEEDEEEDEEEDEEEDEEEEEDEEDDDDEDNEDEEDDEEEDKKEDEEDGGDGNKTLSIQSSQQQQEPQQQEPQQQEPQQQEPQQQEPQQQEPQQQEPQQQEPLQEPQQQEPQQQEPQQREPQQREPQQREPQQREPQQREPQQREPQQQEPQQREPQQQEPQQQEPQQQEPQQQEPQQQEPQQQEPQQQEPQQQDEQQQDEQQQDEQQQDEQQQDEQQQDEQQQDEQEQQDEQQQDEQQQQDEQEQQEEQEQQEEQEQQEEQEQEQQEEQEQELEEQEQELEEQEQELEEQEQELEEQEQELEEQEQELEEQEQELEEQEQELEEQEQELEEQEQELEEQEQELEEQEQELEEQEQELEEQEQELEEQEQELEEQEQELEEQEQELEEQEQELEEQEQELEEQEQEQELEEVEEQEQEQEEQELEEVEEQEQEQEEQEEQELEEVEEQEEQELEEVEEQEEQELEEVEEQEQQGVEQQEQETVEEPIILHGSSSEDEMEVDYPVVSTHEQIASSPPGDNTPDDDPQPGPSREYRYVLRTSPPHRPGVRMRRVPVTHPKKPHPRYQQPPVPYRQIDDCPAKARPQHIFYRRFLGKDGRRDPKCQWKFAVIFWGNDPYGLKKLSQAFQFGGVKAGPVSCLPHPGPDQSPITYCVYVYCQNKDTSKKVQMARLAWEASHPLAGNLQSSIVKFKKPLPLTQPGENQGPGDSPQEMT
Melanin-concentrating hormone receptor 1, sequence (Q99705 whole entry): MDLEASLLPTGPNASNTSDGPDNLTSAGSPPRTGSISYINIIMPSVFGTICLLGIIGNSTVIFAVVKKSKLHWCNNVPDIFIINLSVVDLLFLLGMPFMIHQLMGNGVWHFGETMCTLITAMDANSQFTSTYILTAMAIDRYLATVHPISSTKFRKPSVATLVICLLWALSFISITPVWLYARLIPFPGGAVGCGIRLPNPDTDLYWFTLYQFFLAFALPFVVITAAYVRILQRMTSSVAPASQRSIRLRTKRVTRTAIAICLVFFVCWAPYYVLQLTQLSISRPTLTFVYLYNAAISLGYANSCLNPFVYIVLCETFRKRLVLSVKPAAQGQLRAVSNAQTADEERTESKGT
Heat shock cognate 71 kDa protein, sequence (P11142 whole entry): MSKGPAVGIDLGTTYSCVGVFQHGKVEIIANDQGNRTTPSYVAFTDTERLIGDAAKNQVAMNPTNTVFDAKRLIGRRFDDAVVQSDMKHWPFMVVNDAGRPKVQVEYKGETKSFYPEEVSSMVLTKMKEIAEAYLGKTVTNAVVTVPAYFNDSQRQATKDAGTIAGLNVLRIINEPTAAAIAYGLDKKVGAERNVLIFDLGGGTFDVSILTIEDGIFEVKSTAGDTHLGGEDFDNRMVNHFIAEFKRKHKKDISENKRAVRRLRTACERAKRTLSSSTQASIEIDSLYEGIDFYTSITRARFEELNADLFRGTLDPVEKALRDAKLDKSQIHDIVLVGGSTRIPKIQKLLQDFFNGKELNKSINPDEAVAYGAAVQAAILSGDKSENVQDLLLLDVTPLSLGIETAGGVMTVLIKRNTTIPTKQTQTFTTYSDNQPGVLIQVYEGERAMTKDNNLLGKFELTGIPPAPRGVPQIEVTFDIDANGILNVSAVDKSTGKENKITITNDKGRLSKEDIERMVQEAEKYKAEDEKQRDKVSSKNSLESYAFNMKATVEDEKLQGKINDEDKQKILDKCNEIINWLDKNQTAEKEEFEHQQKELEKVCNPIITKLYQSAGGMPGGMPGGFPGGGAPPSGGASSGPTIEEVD
Heat shock 70 kDa protein 1A, sequence (P0DMV8 whole entry): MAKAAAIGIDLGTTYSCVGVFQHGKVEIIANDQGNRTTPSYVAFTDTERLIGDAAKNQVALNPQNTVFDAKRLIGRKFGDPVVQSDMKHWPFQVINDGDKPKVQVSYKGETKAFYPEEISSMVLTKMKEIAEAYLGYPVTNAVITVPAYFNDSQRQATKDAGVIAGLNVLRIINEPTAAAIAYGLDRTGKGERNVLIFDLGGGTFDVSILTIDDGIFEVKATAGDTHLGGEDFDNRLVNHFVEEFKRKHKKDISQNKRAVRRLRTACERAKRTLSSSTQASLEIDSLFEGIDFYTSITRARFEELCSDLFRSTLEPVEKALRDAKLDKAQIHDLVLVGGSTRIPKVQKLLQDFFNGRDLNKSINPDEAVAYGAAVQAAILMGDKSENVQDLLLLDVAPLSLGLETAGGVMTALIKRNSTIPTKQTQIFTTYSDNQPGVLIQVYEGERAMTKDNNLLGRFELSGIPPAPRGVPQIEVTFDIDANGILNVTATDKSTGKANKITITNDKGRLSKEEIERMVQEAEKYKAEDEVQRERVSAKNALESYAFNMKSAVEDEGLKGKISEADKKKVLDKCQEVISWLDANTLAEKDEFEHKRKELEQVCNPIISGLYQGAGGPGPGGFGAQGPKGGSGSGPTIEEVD

## CC1=C2C(=O)C3C(CC=C4CC(O)CCC43C)C2CCC12OC1CC(C)CNC1C2C (configuration not stated)
cells
  IC50: 4.18 µM (active)

## O=C(Oc1ccc2c(c1)C1C=CCC1C(C(=O)O)N2)c1ccc(Cl)cc1Cl (configuration not stated)
[1]
  IC50: > 100 µM (not active)
[2]
  IC50: 15.6 µM (active)
[3]
  IC50: 17 µM (active)
[4]
  IC50: 2.38 µM (active)
[5]
  IC50: > 100 µM (not active)
[6]
  IC50: > 100 µM (not active)

## CC(C)c1ccc(-n2ncc(Cl)c(Oc3ccc(Cl)c(Cl)c3)c2=O)cc1
[7]
  IC50: 15.9 µM (inactive)

## OCCN(CCO)c1nc(N2CCCCC2)c2nc(N(CCO)CCO)nc(N3CCCCC3)c2n1 [DIPYRIDAMOLE]
ORF 73
  AC50: 8.87 µM (active)
Cytochrome P450 2D6 [8]
  AC50: inactive
Cytochrome P450 2D6 [9]
  AC50: 10 µM (active)

## CCN(c1ccccc1)S(=O)(=O)c1ccc(Cl)c(NC(=O)c2ccc(O)nn2)c1
cells
  IC50: 32.8 µM (active)
